{"source": "paper PMC13224100", "about": "“Esterase-Responsive Mitochondria-Targeted Hydropersulfide Donors Mitigate Doxorubicin Cardiotoxicity While Preserving Anticancer Activity” (Angewandte Chemie (International ed. in English), 2025)", "key": {"H9c2 cells [1]": {"tested_on": "H9c2 cells", "experiment": "Cytoprotection against DOX-induced toxicity, CCK-8 assay", "type": "cell-based", "settings": "4 h pretreatment, then 24 h co-treatment with DOX 5 μM", "protocol": "(§1) We evaluated the cytoprotective effects of RSSH precursors against DOX-induced cardiotoxicity in H9c2 cardiomyoblasts. First, we assessed the cytotoxicity of the RSSH donors (AST-2, APT-1, AST-2-TPP, and APT-1-TPP) using the CCK-8 assay.[24] […] To evaluate cytoprotection, H9c2 cells were pretreated with RSSH donors for 4 h, followed by 24 h co-treatment with DOX (5 μM). As expected, DOX alone reduced cell viability to ca. 50% (Figure 4a). […] Although both compounds were protective, no enhancement of potency was observed upon TPP conjugation. […] A distinctive feature of our study is the direct comparison between mitochondria-targeted and non-targeted RSSH donors. […] TPP conjugation only modestly enhances the cytoprotective effects of RSSH donors under our experimental conditions. This outcome may reflect the intrinsic high efficacy of non-targeted RSSH donors, thereby limiting the additional benefit of mitochondrial targeting.\nFigure 4. Protective effects of RSSH donors against DOX-induced cytotoxicity in H9c2 cells. Cells were pretreated with RSSH donors for 4 h, followed by exposure to DOX (5 μM) for an additional 24 h. Cell viability was assessed using the cell counting Kit-8 (CCK-8) assay. Results are expressed as mean ± SEM, n = 3; *P < 0.05, **P < 0.01, ***P < 0.001, ****P < 0.0001. Ctl = vehicle-treated group (0.01% DMSO in medium). […]\nCytoprotective Effects of RSSH Donors against Doxorubicin Toxicity\nCytoprotective studies were performed as previously described.[8] Briefly, H9c2 cells, HepG2 cells, MDA-MB-468 cells, and MCF-7 cells were seeded at a density of 7 x 10^3 cells/well. […] Additionally, in the vehicle control group, cells were treated with medium (DMEM with 10% FBS) containing 0.01% DMSO only. The cells were then further incubated for an additional 4 h before being treated with DOX (10 μL/well, with final concentration of 5 μM). After a 24 h co-incubation with DOX, each well was carefully washed three times with PBS (pH 7.4) and 100 μL o f F B S-free medium containing 10% v/v CCK-8 (Dojindo) was added. The plates were then incubated for 1-2 h before measuring absorbance at […]\nThe relative % cell viability was calculated as 100 times the ratio of Abs450 (RSSH donor + DOX-exposed) to Abs450 (vehicle, non-DOX-exposed). Each treatment condition was performed in 6 technical replicates per biological replicate, and the experiment was independently repeated three times (n = 3 biological replicates). Data are presented as mean ± SEM. […]"}, "H9c2 cells [2]": {"tested_on": "H9c2 cells", "experiment": "Cytotoxicity of RSSH donors, CCK-8 assay", "type": "cell-based", "settings": "up to 200 μM, 24 h", "protocol": "as §1, with “targeting. […]” for “targeting.”\nCytotoxicity Assessment of Hydropersulfide Precursors in H9c2 and HepG2 cells Cell viability was measured using the Cell Counting Kit-8 (CCK-8, Dojindo).[7] H9c2 cardiomyoblast and HepG2 cells were seeded at a density of 8 × 10³ cells/well in a 96-well plate (flat-bottom, tissue culture-treated). […] All treatments were prepared with a final DMSO concentration of <0.01%. In the vehicle control group, cells were treated with medium (DMEM with 10% FBS) containing 0.01% DMSO only. Cells were incubated with RSSH donors for an additional 24 h. After 24 h, cells were gently washed three times with PBS, pH 7.4. […] The plates were then incubated for 1-2 h before measuring absorbance at 450 nm using a plate reader […]\ncalculated as: % Viability = 100 × [Abs₄₅₀ (treated cells) / Abs₄₅₀ (vehicle control)]. Each treatment condition was performed in 6 technical replicates per biological replicate, and the experiment was independently repeated three times (n = 3 biological replicates). Data are presented as mean ±\n(1 picture or pasted object on this page, not shown here)\nFigure S23. Impact of (A) AST-2 or AST-2-TPP (0-200 µM) and (B) APT-1 (0-200 µM) or APT -1-TPP (0-200 µM) on H9c2 cardiomyocytes. Impact of (C) AST-2 or AST-2-TPP (0-200 µM) and (D) APT-1 (0-200 µM) or APT-1-TPP (0-200 µM) on HepG2 (liver cancer) cells. Results are expressed as mean ± SEM, n≥3; *P<0.05, **P<0.01, ***P<0.001, ****P<0.0001. Ctl = vehicle (medium with 0.01% DMSO) treated cells. […]"}}, "data": [{"smiles": "COC(=O)SSC(C)(C)C(NC(C)=O)C(=O)OC", "note": "(stereo not drawn) [AST-2]", "values": [{"measurement": "concentration of maximal protection", "setting": "H9c2 cells [1]", "result": 25, "unit": "µM"}, {"measurement": "concentration with significant protective effects", "setting": "H9c2 cells [1]", "result": "≥ 1", "unit": "µM"}, {"measurement": "protection against DOX-induced cytotoxicity", "setting": "H9c2 cells [1]", "result": "dose-dependent protection"}, {"measurement": "cytotoxicity of donor alone", "setting": "H9c2 cells [2]", "result": "no measurable toxicity"}]}, {"smiles": "COC(=O)C(NC(C)=O)C(C)(C)SSC(=O)N(C)CCOC(C)=O", "note": "(stereo not drawn) [APT-1]", "values": [{"measurement": "protection against DOX-induced cytotoxicity", "setting": "H9c2 cells [1]", "result": "dose-dependent cytoprotective effect"}, {"measurement": "cytotoxicity of donor alone", "setting": "H9c2 cells [2]", "result": "no measurable toxicity"}]}, {"smiles": "COC(=O)SSC(C)(C)C(NC(C)=O)C(=O)N(C)CCC[P+](c1ccccc1)(c1ccccc1)c1ccccc1", "note": "(stereo not drawn) [AST-2-TPP]", "values": [{"measurement": "concentration of maximal protection", "setting": "H9c2 cells [1]", "result": 25, "unit": "µM"}, {"measurement": "concentration with significant protective effects", "setting": "H9c2 cells [1]", "result": "≥ 1", "unit": "µM"}, {"measurement": "protection against DOX-induced cytotoxicity", "setting": "H9c2 cells [1]", "result": "dose-dependent protection"}, {"measurement": "cytotoxicity of donor alone", "setting": "H9c2 cells [2]", "result": "no measurable toxicity"}]}, {"smiles": "CC(=O)NC(C(=O)N(C)CCC[P+](c1ccccc1)(c1ccccc1)c1ccccc1)C(C)(C)SSC(=O)N(C)CCOC(C)=O", "note": "(stereo not drawn) [APT-1-TPP]", "values": [{"measurement": "protection against DOX-induced cytotoxicity", "setting": "H9c2 cells [1]", "result": "dose-dependent cytoprotective effect"}, {"measurement": "cytotoxicity of donor alone", "setting": "H9c2 cells [2]", "result": "no measurable toxicity"}]}]}
